Source: patent US12077503B2, “Substituted cyclic amides and their use as herbicides” (FMC CORPORATION, priority 2015, dated 2024)

What was measured:
Type in all cases: in vivo
Kochia (Kochia scoparia) [1] = assay: Test A preemergence
Procedure, shortened: (§1)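 Treatment is preemergence as a directed soil spray after planting, or postemergence at the one- to two-leaf stage, with test chemical in a non-phytotoxic solvent mixture plus surfactant. Plants stay in the greenhouse about 10 d before visual injury scoring on a 0 to 100 scale versus untreated controls.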

[2] = test system: barnyardgrass (Echinochloa crus-galli); assay: Test A preemergence
Procedure, shortened: as §1

[3] = test system: giant foxtail (Setaria faberii); assay: Test A preemergence
Procedure, shortened: as §1

[4] = test system: pigweed (Amaranthus retroflexus); assay: Test A preemergence
[5] = test system: ragweed (common ragweed, Ambrosia elatior); assay: Test A preemergence
Procedure, shortened: as §1

[6] = test system: ryegrass, Italian (Italian ryegrass, Lolium multiflorum); assay: Test A preemergence
Procedure, shortened: as §1

[7] = test system: Galium (catchweed bedstraw, Galium aparine); assay: Test A postemergence; settings: postemergence
Procedure, shortened: as §1

Kochia (Kochia scoparia) [8] = assay: Test A postemergence; settings: postemergence
Procedure, shortened: as §1

[9] = test system: barnyardgrass (Echinochloa crus-galli); assay: Test A postemergence; settings: postemergence
Procedure, shortened: as §1

[10] = test system: blackgrass (Alopecurus myosuroides); assay: Test A postemergence; settings: postemergence
Procedure, shortened: as §1

corn (Zea mays) = assay: Test A postemergence; settings: postemergence
Procedure, shortened: as §1

[11] = test system: giant foxtail (Setaria faberii); assay: Test A postemergence; settings: postemergence
Procedure, shortened: as §1

[12] = test system: pigweed (Amaranthus retroflexus); assay: Test A postemergence; settings: postemergence
Procedure, shortened: as §1

[13] = test system: ragweed (common ragweed, Ambrosia elatior); assay: Test A postemergence; settings: postemergence
Procedure, shortened: as §1

[14] = test system: ryegrass, Italian (Italian ryegrass, Lolium multiflorum); assay: Test A postemergence; settings: postemergence
Procedure, shortened: as §1

[15] = test system: wheat (Triticum aestivum); assay: Test A postemergence; settings: postemergence
Procedure, shortened: as §1

[16] = test system: barnyardgrass (Echinochloa crus-galli); assay: Test B flooded paddy test; settings: Flood, 0 to 100 scale where 0 is no effect and 100 is complete control, 13 to 15 d
Procedure, shortened: (§2)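 Percent control, visually estimated after 13–15 d in the greenhouse on a 0–100 basis, compares treated pots with untreated ones; compound was put into paddy water 3 cm above the soil when plants had two leaves.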

[17] = test system: ducksalad (Heteranthera limosa); assay: Test B flooded paddy test; settings: Flood, 0 to 100 scale where 0 is no effect and 100 is complete control, 13 to 15 d
Procedure, shortened: as §2

rice (Oryra sativa) = assay: Test B flooded paddy test; settings: Flood, 0 to 100 scale where 0 is no effect and 100 is complete control, 13 to 15 d
Procedure, shortened: as §2

[18] = test system: sedge, umbrella (small-flower umbrella sedge, Cyperus difformis); assay: Test B flooded paddy test; settings: Flood, 0 to 100 scale where 0 is no effect and 100 is complete control, 13 to 15 d
Procedure, shortened: as §2

[19] = 125 g ai/ha, preemergence, visual rating after approx. 10 d, 0 to 100 scale where 0 is no effect and 100 is complete control
[20] = 500 g ai/ha, preemergence, 0 to 100 scale, 0 = no effect, 100 = complete control
[21] = 125 g ai/ha, visual injury after approximately 10 d, 0 to 100 scale (0 no effect, 100 complete control)
[22] = 500 g ai/ha, visual injury, 0 to 100 scale (0 no effect, 100 complete control), approx. 10 d
[23] = 125 g ai/ha, Preemergence, visual injury after approximately 10 d, 0 to 100 scale where 0 is no effect and 100 is complete control
[24] = 125 g ai/ha, visual rating after approx. 10 d, 0 to 100 scale (0 no effect, 100 complete control)
[25] = 125 g ai/ha, preemergence, 0 to 100 scale (0 no effect, 100 complete control)
[26] = Preemergence, 500 g ai/ha, visual injury approx. 10 d
[27] = 125 g ai/ha, visual injury rating on 0 to 100 scale (0 no effect, 100 complete control), approx. 10 d
[28] = 500 g ai/ha, 0 to 100 scale, 0 no effect, 100 complete control

O=C1NCC(c2ccc(I)cc2)C1C(=O)Nc1ccccc1F (racemic) [Compound 702]
Plant response rating, Kochia (Kochia (Kochia scoparia) [1]; [19]): 20 | Plant response rating, Kochia (Kochia (Kochia scoparia) [1]; [20]): 20 | Plant response rating, Barnyardgrass [2, 19]: 70 | Plant response rating, Barnyardgrass [2, 20]: 90 | Plant response rating, Foxtail, Giant [3, 19]: 90 | Plant response rating, Foxtail, Giant [3, 20]: 90 | Plant response rating, Pigweed [4, 19]: 0 | Plant response rating, Pigweed [4, 20]: 30 | Plant response rating, Ragweed [5, 19]: 0 | Plant response rating, Ragweed [5, 20]: 0 | Plant response rating, Ryegrass, Italian [6, 19]: 0 | Plant response rating, Ryegrass, Italian [6, 20]: 0 | Plant response rating, Galium [7, 21]: 0 | Plant response rating, Galium [7, 22]: 40 | Plant response rating, Kochia (Kochia (Kochia scoparia) [8]; [21]): 0 | Plant response rating, Kochia (Kochia (Kochia scoparia) [8]; [22]): 0 | Plant response rating, Barnyardgrass [9, 21]: 70 | Plant response rating, Barnyardgrass [9, 22]: 70 | Plant response rating, Blackgrass [10, 21]: 0 | Plant response rating, Blackgrass [10, 22]: 0 | Plant response rating, Corn (corn (Zea mays); [21]): 0 | Plant response rating, Corn (corn (Zea mays); [22]): 0 | Plant response rating, Foxtail, Giant [11, 21]: 30 | Plant response rating, Foxtail, Giant [11, 22]: 80 | Plant response rating, Pigweed [12, 21]: 0 | Plant response rating, Pigweed [12, 22]: 0 | Plant response rating, Ragweed [13, 21]: 0 | Plant response rating, Ragweed [13, 22]: 0 | Plant response rating, Ryegrass, Italian [14, 21]: 0 | Plant response rating, Ryegrass, Italian [14, 22]: 0 | Plant response rating, Wheat [15, 21]: 0 | Plant response rating, Wheat [15, 22]: 0 | Plant response rating, Barnyardgrass ([16]; 500 g ai/ha): 50 | Plant response rating, Ducksalad ([17]; 500 g ai/ha): 100 | Plant response rating, Rice (rice (Oryra sativa); 500 g ai/ha): 20 | Plant response rating, Sedge, Umbrella ([18]; 500 g ai/ha): 0

Cc1ccc(C2CNC(=O)C2C(=O)Nc2ccc(F)cc2F)cc1C(F)(F)F (racemic) [Compound 655]
Plant response rating, Kochia (Kochia (Kochia scoparia) [1]; [23]): 30 | Plant response rating, Kochia (Kochia (Kochia scoparia) [1]; [20]): 40 | Plant response rating, Barnyardgrass [2, 23]: 90 | Plant response rating, Barnyardgrass [2, 20]: 90 | Plant response rating, Foxtail, Giant [3, 23]: 90 | Plant response rating, Foxtail, Giant [3, 20]: 90 | Plant response rating, Pigweed [4, 23]: 50 | Plant response rating, Pigweed [4, 20]: 60 | Plant response rating, Ragweed [5, 23]: 0 | Plant response rating, Ragweed [5, 20]: 30 | Plant response rating, Ryegrass, Italian [6, 23]: 40 | Plant response rating, Ryegrass, Italian [6, 20]: 60 | Plant response rating, Galium [7, 24]: 30 | Plant response rating, Galium [7, 22]: 50 | Plant response rating, Kochia (Kochia (Kochia scoparia) [8]; [24]): 30 | Plant response rating, Kochia (Kochia (Kochia scoparia) [8]; [22]): 40 | Plant response rating, Barnyardgrass [9, 24]: 70 | Plant response rating, Barnyardgrass [9, 22]: 90 | Plant response rating, Blackgrass [10, 24]: 20 | Plant response rating, Blackgrass [10, 22]: 30 | Plant response rating, Corn (corn (Zea mays); [24]): 0 | Plant response rating, Corn (corn (Zea mays); [22]): 30 | Plant response rating, Foxtail, Giant [11, 24]: 40 | Plant response rating, Foxtail, Giant [11, 22]: 60 | Plant response rating, Pigweed [12, 24]: 0 | Plant response rating, Pigweed [12, 22]: 0 | Plant response rating, Ragweed [13, 24]: 0 | Plant response rating, Ragweed [13, 22]: 0 | Plant response rating, Ryegrass, Italian [14, 24]: 0 | Plant response rating, Ryegrass, Italian [14, 22]: 30 | Plant response rating, Wheat [15, 24]: 0 | Plant response rating, Wheat [15, 22]: 10 | Plant response rating, Barnyardgrass ([16]; 250 g ai/ha): 20 | Plant response rating, Ducksalad ([17]; 250 g ai/ha): 100 | Plant response rating, Rice (rice (Oryra sativa); 250 g ai/ha): 30 | Plant response rating, Sedge, Umbrella ([18]; 250 g ai/ha): 0

O=C1NCC(c2ccc(Br)cc2)C1C(=O)Nc1ccccc1F (stereo not drawn) [Compound 448]
Plant response rating, Kochia (Kochia (Kochia scoparia) [1]; [25]): 20 | Kochia plant response rating (0 to 100 scale, 0 is no effect, 100 is complete control) (Kochia (Kochia scoparia) [1]; [26]): 50 | Plant response rating, Barnyardgrass [2, 25]: 90 | Barnyardgrass plant response rating (0 to 100 scale, 0 is no effect, 100 is complete control) [2, 26]: 90 | Plant response rating, Foxtail, Giant [3, 25]: 90 | Foxtail, Giant plant response rating (0 to 100 scale, 0 is no effect, 100 is complete control) [3, 26]: 90 | Plant response rating, Pigweed [4, 25]: 20 | Pigweed plant response rating (0 to 100 scale, 0 is no effect, 100 is complete control) [4, 26]: 40 | Plant response rating, Ragweed [5, 25]: 0 | Ragweed plant response rating (0 to 100 scale, 0 is no effect, 100 is complete control) [5, 26]: 20 | Plant response rating, Ryegrass, Italian [6, 25]: 0 | Ryegrass, Italian plant response rating (0 to 100 scale, 0 is no effect, 100 is complete control) [6, 26]: 20 | Galium plant response rating [7, 27]: 30 | Plant response rating, Galium [7, 28]: 50 | Kochia plant response rating (Kochia (Kochia scoparia) [8]; [27]): 30 | Plant response rating, Kochia (Kochia (Kochia scoparia) [8]; [28]): 50 | Barnyardgrass plant response rating [9, 27]: 80 | Plant response rating, Barnyardgrass [9, 28]: 90 | Blackgrass plant response rating [10, 27]: 0 | Plant response rating, Blackgrass [10, 28]: 30 | Corn plant response rating (corn (Zea mays); [27]): 0 | Plant response rating, Corn (corn (Zea mays); [28]): 0 | Foxtail, Giant plant response rating [11, 27]: 60 | Plant response rating, Foxtail, Giant [11, 28]: 80 | Pigweed plant response rating [12, 27]: 20 | Plant response rating, Pigweed [12, 28]: 40 | Ragweed plant response rating [13, 27]: 0 | Plant response rating, Ragweed [13, 28]: 0 | Ryegrass, Italian plant response rating [14, 27]: 0 | Plant response rating, Ryegrass, Italian [14, 28]: 20 | Wheat plant response rating [15, 27]: 0 | Plant response rating, Wheat [15, 28]: 0 | Plant response rating, Barnyardgrass ([16]; 250 g ai/ha): 40 | Plant response rating, Ducksalad ([17]; 250 g ai/ha): 95 | Plant response rating, Rice (rice (Oryra sativa); 250 g ai/ha): 0 | Plant response rating, Sedge, Umbrella ([18]; 250 g ai/ha): 0
